Data reported in patent publication US20070093539A1, “N-hydroxy-4-(3-pheyl-5-methyl-isoxazole-4-yl)-benzenesulfonate solvates” (priority 2003, published 2007).

Columns and labels:
[1] = system: carrageenan-induced foot paw edema; assay: Carrageenan-induced rat foot paw edema assay; assay type: in vivo, male Wistar rats; settings: for ED30 of edema inhibition: p.o.
Procedure: The edema was induced in male Wistar rats (140-150 g) by subcutaneous injection of carrageenan (50 μl of 1% suspension) into the right hind paw. The formed inflammation was measured with plethysmometer (Ugo Basile, type: 7150). The treated paw was placed into the plethysmometer (filled with 0.3% additives in 0.5% saline), the level of the inflammation was detected by the volume of the displaced solution. This volume was compared with the initial preinjection paw volume. Level of the inflammation (ml)=volume after CA treatment (ml)−volume before CA treatment (ml) The inflammation induced in treated group was compared to control group (which was given only vehicle). The sample materials and the solvent were dosed per os via gastro-sonde 1 hour before the CA treatment. The volume of the treated limb was measured at 3h and 5h after CA treatments. The change of the inflammation level was calculated as follows: [formula]

[2] = system: carrageenan and kaolin induced monoarthritis; assay: Carrageenan and kaolin induced monoarthritis model (incapacitance test); assay type: in vivo, rats; settings: 10 mg/kg p.o.
Procedure: The Incapacitance tester is an apparatus for measure the changes of the functional parameters induced of the pain, which can register the bearing on the hind limb, the amount of the moving and the changing of the centre of gravity. Knee-joint of the right-back limb was treated with solution of 100 μl 2% carrageenan and kaolin. During 3-4 hours after the treatment arthritis was emerged in the capsular ligament of the treated limb. This inflammation still exists at 24 hours after the treatment. Because of the pain the animals coddles the treated limbs, thy weign on it less. Change of weight load is measurable with Incapacitance tester device in grams. The incapacitance was calculated as follows: [formula] Analgesic-antiinflammantory compounds could increase the stimulus threshold of the knee-joint, and consequently to improve the functional parameters of the limb. Measure of this can be counted by the decrease of the loading of left leg i.e. in terms of percentage of reversal. [formula] The Incapacitance induced by administration of irritants in left paw was measured at 4 hour after the injection. Afterwards the animals (n=24-32/group) were. orally treated with dose of 10 mg/kg valdecoxib and test compounds. Measurements were done at 1 and 2 hours after the treatments.

N-hydroxi-4-(3-phenyl-5-methyl-isoxazole-4-yl)-benzenesulfonamide monohydrate [example 1]
edema inhibition effect % ([1]; 0.3 mg/kg p.o., 4 hours after treatment): 19.5% | edema inhibition effect % ([1]; 0.3 mg/kg p.o., 6 hours after treatment): 17.5% | edema inhibition effect % ([1]; 1.0 mg/kg p.o., 4 hours after treatment): 25.2% | edema inhibition effect % ([1]; 1.0 mg/kg p.o., 6 hours after treatment): 37.2% | edema inhibition effect % ([1]; 3.0 mg/kg p.o., 4 hours after treatment): 33.9% | edema inhibition effect % ([1]; 3.0 mg/kg p.o., 6 hours after treatment): 40.4% | edema inhibition effect % ([1]; 10.0 mg/kg p.o., 4 hours after treatment): 40.7% | edema inhibition effect % ([1]; 10.0 mg/kg p.o., 6 hours after treatment): 59.2% | ED30 of edema inhibition ([1]; 4 hours after treatment): 1.8 mg/kg | ED30 of edema inhibition ([1]; 6 hours after treatment): 0.8 mg/kg | Analgesic effect (% reversal) after p.o. treatment ([2]; 1 hour): 63.2 % reversal | Analgesic effect (% reversal) after p.o. treatment ([2]; 2 hours): 76.9 % reversal
